These results are taken from article PMC10691883, “Efficient One-Pot Synthesis of Novel Caffeic Acid Derivatives as Potential Antimalarials” (Journal of Parasitology Research, 2023).

Read-outs that look alike come from different tables or passages of the source.

The subject of data set [1] is P. falciparum W2 (CQ-resistant) strain. The data set can be described thus: P. falciparum drug susceptibility assay (pLDH), CQ-resistant strain W2. It counts as cell-based. Particulars: for IC50: Plasmodium falciparum, read-out: P. falciparum IC50 W2; for SIW2: IC50(NHDF)/IC50(W2). The procedure: (§1) P. falciparum cultures were prepared and maintained according to the method of Trager and Jensen, with slight modifications. […] Serial dilutions of the compounds were prepared in 96-well flat-bottomed microplates. […] Parasite growth was determined spectrophotometrically (OD650) by measuring the activity of parasite lactate dehydrogenase (pLDH), according to a modified version of the method of Makler and Hinrichs, in control and compound-treated cultures.

In data set [2] the test system is P. falciparum D10 (CQ-sensitive) strain. The data set can be described thus: P. falciparum drug susceptibility assay (pLDH), CQ-sensitive strain D10. It counts as cell-based. Particulars: for IC50: Plasmodium falciparum; for SID10: IC50(NHDF)/IC50(D10). Here is the method:
as §1

Data set [3] relates to NHDF cells (normal human dermal fibroblasts). Particulars: read-out: Cytotoxicity IC50, MTT; cited from earlier work.
Data set [4] in a line: MTT cytotoxicity assay on NHDF cells. Format: cell-based. The following applies: human, NHDF cells (normal human dermal fibroblasts). The procedure: NHDF cells were grown in alpha-MEM medium supplemented likewise with 10% FBS, L-glutamine, and antibiotic-antimycotic. Cultures were maintained at 37°C, in a humidified Innova CO-180 incubator (New Brunswick Scientific, Edison, NJ, USA) in an atmosphere containing 5% CO2. The cytotoxic effects of CA derivatives were evaluated as described in literature using the standard MTT assay. Briefly, NHDF cells were seeded in a 96-well plate at a density of 5 × 10^3 cells per well in an alpha-MEM medium. Cells were grown overnight and subsequently exposed to the different concentrations of tested compounds dissolved in DMSO. An equivalent volume of DMSO was used as a negative control. After 72 h of incubation, media containing the test compounds were removed, the cells were washed with sterile PBS, and 50 μL of MTT solution (0.5 mg/mL stock solution was 10 times diluted in the appropriate culture medium) was added to each well for 3 h at 37°C. Subsequently, the MTT solution was removed, the formazan crystals were solubilized in DMSO, and absorbance was recorded using an Asys UVM 340 multiwell plate reader (Cambridge, UK) at 560 nm with a reference wavelength of 670 nm. The % of cell viability was calculated using the following formula: Cell viability (%) = (AT/AC) × 100, where AT is the absorbance of the treatment well (treated cells) and AC is the absorbance of the control well (not treated cells). GraphPad Prism software for Windows (GraphPad Software, La Jolla, CA, USA) was used to calculate IC50 values.
(Tetrazolium dyes change colour on reduction, which living cells bring about.)

Data set [5] is described as follows: Hemolytic activity against human erythrocytes. It counts as cell-based. Particulars: freshly isolated human red blood cells (erythrocytes), PBS, 37°C. The procedure: Hemolytic activity was measured as described by Jaromin et al. Compounds 3 and 4, dissolved in DMSO, were added in a volume corresponding to a final concentration of 12.5 μM and then incubated with freshly isolated human red blood cells in PBS buffer at 37°C for 30 min. After centrifugation, the absorbance was determined at 540 nm, to assess the released hemoglobin. In addition, negative (erythrocytes in PBS buffer), positive (erythrocytes in distilled water), and DMSO controls were also performed. The study protocol was approved by the Bioethics Commission at the Lower Silesian Medical Chamber (1/PNHAB/2018).

The subject of data set [6] is P. berghei. More on the design: method as in PMID 30033538. Particulars: 100 mg/kg, in vivo; cited from earlier work.
The mark [7] stands for this setting: W2 CQ-resistant strain, 72 h, pLDH, mean ± SD.
Setting [8] is: D10 CQ-sensitive strain, 72 h, pLDH, mean ± SD, read-out: P. falciparum IC50 D10.
The mark [9] stands for this setting: strain not given (D10 and/or W2), read-out: P. falciparum IC50.

`O=C(O)/C=C/c1ccc(O)c(O)c1` [CA, (E)-3-(3,4-dihydroxyphenyl)prop-2-enoic acid, reference compound]: the IC50 in data set [1] (setting [7]) and in data set [2] (setting [8]) was over 278 µM each time.
In the case of `CCN(CC)CCCC(C)Nc1ccnc2cc(Cl)ccc12` (centres unmarked) [CQ, chloroquine, reference compound], the IC50 (usually the concentration that inhibits the measured activity by half) in data set [3] is 41 ± 2.29 µM; in data set [1] (W2, 72 h) it was 0.23 ± 0.08 µM; in data set [2] (D10, 72 h, read-out: P. falciparum IC50 D10), 0.02 ± 0.01 µM. This compound also registered an SIW2 in data set [1] of 178.04. For the same compound, the SID10 in data set [2] was found to be 2047.5.
In the case of `CC(C)(C)OC(=O)/C=C/c1ccc(O)cc1O` [Compound 1, tert-Butyl (2E)-3-(2,4-Dihydroxyphenyl)-propenoate], in data set [1], the SIW2 turned out to be 2.89. The IC50 is 86.4 ± 27.4 µM in data set [1] (setting [7]) and 28.6 ± 1.94 µM in data set [2] (setting [8]). Also, the “RI (resistance index)” value in data set [1] (ratio IC50 W2 / IC50 D10) is on record as 3.02. Moreover, the SID10 in data set [2] is listed as 8.73. The compound also registered an IC50 at 72 h in data set [4] of 249.8 ± 0.51 µM.
As to `CCOC(=O)/C=C/c1ccc(O)c(O)c1O` [Compound 2, Ethyl (2E)-3-(2,3,4-Trihydroxyphenyl)-propenoate], the melting point – broadly, the temperature of the solid-liquid transition – lay within 172 to 173 °C. Also, the SIW2 in data set [1] is 2.98. Besides, the half-maximal inhibitory concentration (IC50) in data set [1] (setting [7]) amounted to 38.8 ± 17.8 µM. The compound also yielded an SID10 in data set [2] of 2.74. The IC50 in data set [2] (setting [8]) turned out to be 42.1 ± 9.12 µM. The same compound came in with an IC50 at 72 h in data set [4] of 115 ± 1.76 µM.
`CCOC(=O)/C(C)=C/c1ccc(O)c(O)c1O` [Compound 3, Ethyl (2E)-3-(2,3,4-Trihydroxyphenyl)-2-methylpropenoate] registered a melting point of 140 °C. The same compound had an SIW2 in data set [1] of 7.02. Besides, the IC50 in data set [1] (setting [7]) was determined as 11.3 ± 4.81 µM. For the same compound, the SID10 in data set [2] is listed as 6.23. In addition, the IC50 in data set [2] (setting [8]) came out at 12.7 ± 2.33 µM. The IC50 in data set [2] (setting [9]) was 11 to 12.7 µM. The compound also came in with a hemolysis at 30 min, 12.5 µM in data set [5] of 4.13 ± 0.85%. In addition, in data set [4], 79.2 ± 6.14 µM corresponded to half-maximal inhibition (IC50 at 72 h).
As for `CC(C)(C)OC(=O)/C=C/c1ccc(O)c(O)c1O` [Compound 4, tert-Butyl (2E)-3-(2,3,4-Trihydroxyphenyl)-propenoate], the melting point turned out to be 175 °C. For the same compound, in data set [1] (CQ-resistant strain, 4 compared with 1), the “fold decrease of IC50 versus compound 1” value stood at 7.9 times. The compound further yielded an SIW2 in data set [1] of 8.24. In addition, the IC50 in data set [1] (setting [7]) stood at 11 ± 4.88 µM. The SID10 in data set [2] is 7.42. Besides, the IC50 in data set [2] (setting [8]) is 12.2 ± 4.9 µM. For the same compound, the IC50 in data set [2] (setting [9]) lay within 11 to 12.7 µM. Also, in data set [5], the hemolysis at 30 min, 12.5 µM was found to be 52.9 ± 2.93%. The compound also registered an IC50 at 72 h in data set [4] of 90.3 ± 10.3 µM.
With `CCOC(=O)/C(C)=C/c1ccc(O)c(F)c1` [Compound 5, Ethyl (2E)-3-(3-Fluoro-4-hydroxyphenyl)-2-methylpropenoate], the results for the IC50 in data set [1] (setting [7]), in data set [2] (setting [8]) and in data set [2] (setting [9]) were 131 ± 52.7 µM, 145 ± 53.6 µM and 117 µM, respectively.
The compound `CC(C)(C)OC(=O)/C=C/c1ccc(O)c(F)c1` [Compound 6, tert-Butyl (2E)-3-(3-Fluoro-4-hydroxyphenyl)-propenoate] yielded a melting point of 88.3 °C. The SIW2 in data set [1] was 1.95. Besides, the IC50 in data set [1] (setting [7]) amounted to 117 ± 35.9 µM. In data set [2], this compound returned an SID10 of 1.77. In data set [2] (setting [8]), the IC50 came out at 129 ± 59.6 µM. Further, in data set [2] (setting [9]), the IC50 is 145 µM. This compound also came in with an IC50 at 72 h in data set [4] of 229 ± 7.57 µM.
With `CCOC(=O)/C=C/c1ccc(O)c(O)c1` [Ethyl caffeate], the “P. berghei inhibition growth” value in data set [6] is 55%.
